Experimental data from patent US9474282B2, “Acid-solubilized copper-ammonium complexes and copper-zinc-ammonium complexes, compositions, preparations, methods, and uses” (priority 2013, dated 2016).
Marks after values point to notes of the source that are not given here.

Columns and labels:
[1] = system: Candida albicans strains 1-1, 3-1 and 4-1; experiment: Anti-fungal/yeast microplate assay (MIC, resazurin); assay type: cell-based
Experimental: (§1) The three strains of Candida albicans (C. albicans) used: 1-1, 3-1 and 4-1 were isolated from human blood, vagina and oropharynx, respectively. Cryptococcus neoformans (C. neoformans) strain CCTP13 was used. All strains were cultured in RPMI-1640 medium at 37° C. The copper sulfate and Cu# compositions started at a high concentration of 200 micrograms/milliliter, whilst the Cu—Zn# compositions started at a high concentrations of 1% of the stock solution (Table 2) and zinc sulfate and phosphorous acid started with a high concentrations equivalent to those in Cu—Zn#7 and #10 (see the legend of Table 1 for details) doubling dilutions (100 microliters) of the compositions were prepared in RPMI-1640 in a 96-well tissue culture plate. Overnight C. albicans and C. neoformans cultures were diluted 1:40 and 1:10 respectively with fresh RPMI containing 40 mM MOPS buffer and 90 microliters was added to the compositions in the plate. Resazurin A (10 microliters of a 0.0675% wt/vol solution in distilled water) was added as an indicator of growth, and the cultures were incubated at 37° C. for 24 hr. The minimum inhibitory concentration (MIC) of the compounds/compositions was defined as the lowest concentration at which the resazurin A indicator remained blue (living cells convert the blue dye to a pink color).

[2] = system: Staphylococcus aureus strain (S1); experiment: Agar plate test for antibacterial effect, area of inhibition; assay type: cell-based
Experimental: (§2) A 0.2 milliliter sample of the P. acnes culture was spread onto a 9 centimeter Petri dish containing BHI agar and allowed to dry.
(§3) The composition to be tested was either diluted with distilled water and 5 microliters was placed onto a 5 millimeter filter paper disc or was added to the Aloe vera-based gel (without preservatives) described above at various concentrations and a 5 microliter drop was placed onto the agar surface. The plates were then incubated at 37° C. for 24 hours (under anaerobic conditions for P. acnes), when the zones of inhibition (ZoI) were measured in millimeters) twice at a […] angle using a ruler and the average diameter (D) was calculated. The area of inhibition in mm^2 (AoI) was calculated using the formula: AoI=π×(D/2)^2.

[3] = system: Propionibacterium acnes strain ATCC 11828 (P. acnes); experiment: Agar plate test for antibacterial effect, zone of inhibition; assay type: cell-based; conditions: stock diluted 1:200 in distilled water (200 microgram/milliliter elemental copper for Cu# and copper sulfate), BHI agar, 24 hours anaerobic
Experimental: as §2, §3

[4] = pH of stock solutions and gel formulation; assay type: physicochemical; conditions: stock solution
P. acnes = experiment: Bacterial microplate cultures (MIC); assay type: cell-based, Propionibacterium acnes
Experimental: (§4) The aerobic bacterial strains Acinetobacter baumannii (A. baumannii), methicillin-resistant Staphylococcus aureus (MRSA) and Klebsiella pneumonia (K. pneumoniae) were isolated from swabs taken in a hospital ward. Escherichia coli (NCTC 9001; E. coli) is a clinical isolate from a patient's urinary bladder; all strains were cultured in RPMI-1640. Stock solutions of the compounds/compositions to be tested were diluted so that double dilutions in the microplate assays commenced at a 1% vol/vol concentration. Double dilutions of the compositions to be tested were prepared in RPMI-1640 in a 96-well tissue culture plate. The bacterial cultures were diluted 1:40 with fresh RPMI and added to the compositions. P. acnes was cultured as described in EXAMPLE 1 (Agar plate test methods) and a sample was diluted 1:100 with fresh BHI. Double dilutions of the compositions to be tested were prepared as described above in distilled water in a 96-well tissue culture plate (100 microliters) and 100 microliters of the diluted P. acnes culture was added. The plates were then incubated at 37° C. for 24 hours (under anaerobic conditions for P. acnes). The minimum inhibitory concentration (MIC) of the compositions was defined as the lowest concentration at which no visible bacterial growth was observed.

[5] = system: Acinetobacter baumannii (A. baumannii); experiment: Bacterial microplate cultures (MIC); assay type: cell-based; conditions: RPMI-1640, 24 hours
Experimental: as §4

[6] = system: Escherichia coli (NCTC 9001; E. coli); experiment: Bacterial microplate cultures (MIC); assay type: cell-based; conditions: RPMI-1640, 24 hours
Experimental: as §4

[7] = system: Klebsiella pneumonia (K. pneumoniae); experiment: Bacterial microplate cultures (MIC); assay type: cell-based; conditions: RPMI-1640, 24 hours
Experimental: as §4

[8] = system: methicillin-resistant Staphylococcus aureus (MRSA); experiment: Bacterial microplate cultures (MIC); assay type: cell-based; conditions: RPMI-1640, 24 hours
Experimental: as §4

[9] = system: Aspergillus niger (A. niger); experiment: Anti-fungal assay with plant pathogenic fungi on PDA; assay type: cell-based
Experimental: (§5) Chalara […] isolate 196/28 ([…]), Aspergillus niger (A. niger) and a strain isolated from powdery mildew (Pm; isolated from an apple leaf) were cultured on potato dextrose agar (PDA) at room temperature (around 22° C.). […] The plate was agitated to evenly distribute the test composition evenly through the agar (distilled water alone was used as control) and then the agar was allowed to set. […] To assess the effects of compositions on fungal growth, the diameter of the fungal hyphae was measured twice at a 90° angle using a ruler and the average diameter in millimeters was calculated. If no fungal growth could be detected by eye, the cultures were observed by phase microscopy (40×) to confirm that there was no growth (NG) as judged by visual examination.

[10] = system: Chalara fraxinea isolate 196/28 (C. fraxinea); experiment: as above; assay type: cell-based
Experimental: as §5

[11] = system: strain isolated from powdery mildew (Pm); experiment: as above; assay type: cell-based, powdery mildew (isolated from an apple leaf); conditions: 3 days of culture
Experimental: as §5

[12] = system: Cryptococcus neoformans strain CCTP13; experiment: Anti-fungal/yeast microplate assay (MIC, resazurin); assay type: cell-based; conditions: C. neoformans
Experimental: as §1

A-431 = experiment: Cytotoxicity assay with a human squamous epithelial skin cell line (SRB assay); conditions: confluent A-431, 24 hours, SRB (FIG. 4)
Experimental: A-431 (ATCC) was cultured in RPMI-1640 medium supplemented with 10% fetal bovine serum and 2 mM L-glutamine (complete medium) in a humidified incubator at 37′C with a 5% CO2 in air atmosphere. For cytotoxicity experiments the cells were trypsinized, washed, counted and 2×10^4 cells were plated into the wells of flat-bottom 96-well plates in complete medium and cultured for 3 days until a confluent monolayer was formed. […] All test products were diluted in complete medium and then added in triplicate to the confluent A-431 cells which were then cultured for a further 24 hours when cytotoxicity/cell survival was quantitatively assessed using the sulforhodamine B (SRB) assay as described below.
The cells were washed twice with RPMI-1640 medium and then fixed with 10% trichloroacetic acid for 1 hour at 4° C. After washing twice with tap water, the cells were stained with SRB (0.4% w/v SRB in 1% acetic acid) for 30 min at room temperature. After washing twice with tap water the remaining stain was dissolved in 10 mM Tris base and the absorbance of the wells was measured on a Dynatech Multiplate ELISA reader at 540 nm. Percent cell survival was calculated by dividing the test product absorbance by control absorbance and multiplying by 100.

[13] = C. albicans strain 1-1, copper-free controls, concentration of zinc sulfate or phosphorous acid
[14] = C. albicans strain 3-1, copper-free controls, concentration of zinc sulfate or phosphorous acid
[15] = C. albicans strain 4-1, copper-free controls, concentration of zinc sulfate or phosphorous acid
[16] = Experiment #1, 24 hours anaerobic

OP(O)O [Composition H3PO3, phosphorous acid]
MIC [1, 13]: >500 µg/mL | MIC [1, 14]: >500 µg/mL | MIC [1, 15]: >500 µg/mL | MIC ([1]; C. albicans strains): > 500 micrograms/milliliter

O=S(=O)([O-])[O-].[Cu+2] [Copper sulfate, copper sulfate]
Area of inhibition (AoI) ([2]; dissolved in gel, 800 micrograms/milliliter, TSA, 24 hours (FIG. 1)): 28 mm^2 | Zone of Inhibition (mm) [3]: 13 mm | pH of stock solutions [4]: 3.4 | MIC (P. acnes; [16]): 100 µg/mL | MIC (P. acnes; Experiment #2, 24 hours anaerobic): 200 µg/mL | MIC [5]: 6.3 microgram/milliliter | MIC [6]: 100 microgram/milliliter | MIC [7]: 50 microgram/milliliter | MIC [8]: 12.5 microgram/milliliter | Diameter of fungal growth (mm) ([9]; 12.5 μg/ml, Day 4): 15 mm | Diameter of fungal growth (mm) ([9]; 12.5 μg/ml, Day 7): 17 mm | Diameter of fungal growth (mm) ([9]; 12.5 μg/ml, Day 11): 18 mm | Diameter of fungal growth (mm) ([9]; 37.5 μg/ml, Day 4): 13 mm | Diameter of fungal growth (mm) ([9]; 37.5 μg/ml, Day 7): 16 mm | Diameter of fungal growth (mm) ([9]; 37.5 μg/ml, Day 11): 18 mm | Diameter of fungal growth (mm) ([9]; 125 μg/ml, Day 4, NG = no growth by phase microscopy): 7 mm | Diameter of fungal growth (mm) ([9]; 125 μg/ml, Day 7, NG = no growth): 10 mm | Diameter of fungal growth (mm) ([9]; 125 μg/ml, Day 11, NG = no growth): 15 mm | Diameter of fungal growth (mm) ([10]; 3.75 μg/ml, Day 7): 14 mm | Diameter of fungal growth (mm) ([10]; 3.75 μg/ml, Day 15): 20 mm | Diameter of fungal growth (mm) ([10]; 12.5 μg/ml, Day 7): 14 mm | Diameter of fungal growth (mm) ([10]; 12.5 μg/ml, Day 15): 20 mm | Diameter of fungal growth (mm) ([10]; 37.5 μg/ml, Day 7): 13 mm | Diameter of fungal growth (mm) ([10]; 37.5 μg/ml, Day 15, 20 mm = confluent): 20** mm | Diameter of fungal growth (mm) ([10]; 125 μg/ml, Day 7): 10 mm | Diameter of fungal growth (mm) ([10]; 125 μg/ml, Day 15): 18 mm | Diameter of fungal growth (mm) ([11]; 12.5 μg/ml): 17 mm | Diameter of fungal growth (mm) ([11]; 37.5 μg/ml): 17 mm | Diameter of fungal growth (mm) ([11]; 125 μg/ml): 13 mm | Diameter of fungal growth (mm) ([11]; 375 μg/ml, NG = no growth): 3* mm | MIC (μg/ml Cu^2+) ([1]; C. albicans strain 1-1, 24 hr): 6.3 μg/ml Cu^2+ | MIC (μg/ml Cu^2+) ([1]; C. albicans strain 3-1, 24 hr): 6.3 μg/ml Cu^2+ | MIC (μg/ml Cu^2+) ([1]; C. albicans strain 4-1, 24 hr): 6.3 μg/ml Cu^2+ | MIC (μg/ml Cu^2+) ([12]; 24 hr): 6.3 μg/ml Cu^2+ | 50% cytotoxic concentrations (CC50) (A-431): 50 micrograms/milliliter

O=S(=O)([O-])[O-].[Zn+2] [Zinc sulfate, zinc sulfate]
effect on the growth of S1 (S. aureus) ([2]; alone in gel, 50-200 micrograms/milliliter (FIG. 2)): no effect | effect on the growth of S1 (S. aureus) ([2]; in gel, 100 micrograms/milliliter (FIG. 3)): no effect | MIC (P. acnes; [16]): 25 µg/mL | MIC (P. acnes; Table 5 experiment, varying Cu:Zn ratios): 50 µg/mL | MIC [1, 13]: >150 µg/mL | MIC [1, 14]: >150 µg/mL | MIC [1, 15]: >150 µg/mL | MIC ([1]; C. albicans strains): > 150 micrograms/milliliter | MIC ([12]; copper-free control, concentration of zinc sulfate): >150 µg/mL
